19 compounds from patent US6506751B1, “Thiazolidinone compounds useful as chemokine inhibitors” (Millennium Pharmaceuticals, Inc., priority 1999, dated 2003) can be followed below.

By IC50 is commonly meant the concentration needed to halve the response being measured. As a reminder, the melting point is the temperature of the solid-liquid transition.

Molecules are shown by their SMILES.

One data set addresses T1, CCR-5 receptor (Homo sapiens, UniProt P51681).
T1 construct: membranes prepared from CCR-5/L 1.2 cells; expressed in transfected cells; host or cells: L1.2 cells (CCR-5/L 1.2), membrane preparation
The experiment in a line: 125I-gp120/sCD4/CCR-5 binding assay (CCR-5 receptor binding assay). The conditions noted are these: for IC50: block of 125I-gp120 (HIV-1 JR-FL)/sCD4 binding to membranes from CCR-5/L 1.2 cells; for inhibition at 10 µM / % Inhib. @ 10 μM: 10 μM compound, 125I-gp120/sCD4 binding to membranes from CCR-5/L 1.2 cells; for inhibition at 10 µM: read-out: % Inhib. @ 10 μM. How it is done:
The ^125I-gp120/sCD4/CCR-5 binding assay is carried out similarly as described in Wu et al., Nature, 1996;384:179-183. Briefly, the envelope gp120 protein derived from HIV-1 JR-FL (Trkola et al., Nature, 1996;384:184-186), a M-tropic strain, is iodinated using solid phase lactoperoxidase to a specific activity of 20 μCi/μg. For each binding reaction (in a final volume of 100 μL binding buffer [50 mM HEPES, pH 7.5, 1 mM CaCl2, 5 mM MgCl2, and 0.5% BSA]), 25 μL (2.5 μg) of membranes prepared from CCR-5/L 1.2 cells are mixed with 25 μL (3 nM) sCD4, followed by 25 μL (0.1 nM) radiolabeled gp120 in the presence or absence of 25 μL compound dissolved in DMSO (final concentration of DMSO 0.5%). The reactions are incubated at room temperature for 45 to 60 minutes and stopped by transferring the mixture to GFB filter plates, which are then washed 3 to 4 times with binding buffer containing 0.5 M NaCl. The plates are dried and MicroScint scintillation fluid is added before counting.

T1 sequence (P51681 whole entry): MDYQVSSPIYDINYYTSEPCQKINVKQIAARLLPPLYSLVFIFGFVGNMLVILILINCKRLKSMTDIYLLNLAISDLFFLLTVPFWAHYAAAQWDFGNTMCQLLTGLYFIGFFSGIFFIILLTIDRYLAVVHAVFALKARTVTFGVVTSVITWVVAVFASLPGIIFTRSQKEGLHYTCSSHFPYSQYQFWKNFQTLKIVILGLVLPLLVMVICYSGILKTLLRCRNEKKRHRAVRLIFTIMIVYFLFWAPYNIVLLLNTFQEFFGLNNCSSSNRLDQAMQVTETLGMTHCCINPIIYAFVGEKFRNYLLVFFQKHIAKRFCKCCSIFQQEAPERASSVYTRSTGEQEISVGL

For the compound `O=C1/C(=C\c2cccc(F)c2)SC(c2cccc(F)c2)N1CCCN1CCOCC1` (stereo not shown) [Compound 1, 5-(3-Fluorobenzylidene)-2-(3-fluorophenyl)-3-(3-morpholin-4-ylpropyl)-thiazolidin-4-one], the melting point is 149 to 150 °C. Moreover, on CCR-5 receptor, the IC50 worked out at 10.8 µM. The like results for `O=C1/C(=C\c2cccc(Cl)c2)SC(c2cccc(Cl)c2)N1CCCN1CCCCC1` (stereo not shown) [Compound 2, 5-(3-Chlorobenzylidene)-2-(3-chlorophenyl)-3-(3-piperidin-1-yl-propyl)-thiazolidin-4-one] were, in that order, 137 to 139 °C and 0.25 µM.

For `O=C1/C(=C\c2cccc(F)c2)SC(c2cccc(F)c2)N1CCCN1CCC(N2CCCCC2)CC1` (stereo not shown) [Compound 6, 3-(3-[1,4′]Bipiperidinyl-1′-yl-propyl)-5-(3-fluorobenzylidene)-2-(3-fluorophenyl)-thiazolidin-4-one], the melting point lay in the range of 160 to 162 °C. The compound also displayed an IC50 on CCR-5 receptor of 1.26 µM. As for `O=C1/C(=C\C2CCCCC2)SC(c2cccc(Cl)c2)N1CCCN1CCCCC1` (stereo not shown) [Compound 14, 2-(3-Chlorophenyl)-5-cyclohexylmethylene-3-(3-piperidin-1-yl-propyl)-thiazolidin-4-one], the melting point is 90 to 91 °C. On CCR-5 receptor, this compound yielded an IC50 of 0.46 µM. For `CCN(CC)CCSCCCN1C(=O)/C(=C\c2cccc(F)c2)SC1c1cccc(Cl)c1` (stereo not shown) [Compound 15, 2-(3-Chlorophenyl)-3-[3-(2-diethylaminoethylsulfanyl)propyl]-5-(3-fluorobenzylidene)-thiazolidin-4-one], the melting point was in the range of 41 to 43 °C. The same compound showed a half-maximal inhibitory concentration (IC50) at CCR-5 receptor of 12.7 µM. On the same counts, the results for `O=C1CSC(c2cccc(Cl)c2)N1C1CCN(Cc2ccccc2)CC1` (stereo not shown) [Compound 16, 3-(1-Benzylpiperidin-4-yl)-2-(3-chlorophenyl)-thiazolidin-4-one] are 140 to 141 °C and 3.81 µM.

Compound `O=C1/C(=C\c2cccc(F)c2)SC(c2cccc(Cl)c2)N1C1CCN(Cc2ccccc2)CC1` (stereo not shown) [Compound 19, 3-(1-Benzylpiperidin-4-yl)-2-(3-chlorophenyl)-5-(3-fluorobenzylidene)-thiazolidin-4-one] had a melting point of 121 to 123 °C. This compound returned an IC50 at CCR-5 receptor of 0.28 µM.

Compound `O=C1/C(=C\c2ccco2)SC(c2cccc(Cl)c2)N1CCCN1CCCCC1` (stereo not shown) [Compound 20, 2-(3-Chlorophenyl)-5-(furan-2-ylmethylene)-3-(3-piperidin-1-yl-propyl)-thiazolidin-4-one] yielded a melting point of 156 to 158 °C. The same compound showed an IC50 at CCR-5 receptor of 0.17 µM.

Turning to `O=C1/C(=C\c2cccc(F)c2)SC(c2cccc(Cl)c2)N1CCCN1CCOCC1` (stereo not shown) [Compound 23, 2-(3-Chlorophenyl)-5-(3-fluorobenzylidene)-3-(3-morpholin-4-yl-propyl)-thiazolidin-4-one], the melting point was in the range of 142 to 143 °C. Besides, the IC50 on CCR-5 receptor amounted to 1.99 µM. Turning to `O=C1C(=Cc2ccccc2)SC(c2cccc(Cl)c2)N1CCCN1CCN(c2ncccn2)CC1` (stereo not shown) [Compound 43, 5-Benzylidene-2-(3-chloro-phenyl)-3-[3-(4-pyrimidin-2-yl-piperazin-1-yl)-propyl]-thiazolidin-4-one], the inhibition at 10 µM on CCR-5 receptor was found to be 95%. `O=C1C(=Cc2ccccc2)SC(c2cccc(Cl)c2)N1CCCN1CCN(C2CCCCC2)CC1` (stereo not shown) [Compound 44, 5-Benzylidene-2-(3-chloro-phenyl)-3-[3-(4-cyclohexyl-piperazin-1-yl)-propyl]-thiazolidin-4-one]: the inhibition at 10 µM on CCR-5 receptor was found to be 54.5%. `O=C1C(=Cc2cccc(Cl)c2)SC(c2cccc(C(F)(F)F)c2)N1CCCN1CCN(c2ncccn2)CC1` (stereo not shown) [Compound 45, 5-(3-Chloro-benzylidene)-3-[3-(4-pyrimidin-2-yl-piperazin-1-yl)-propyl]-2-(3-trifluoromethyl-phenyl)-thiazolidin-4-one]: the inhibition at 10 µM on CCR-5 receptor amounted to 57.7%.

Consider `O=C1C(=Cc2cccc(Cl)c2)SC(c2cccc(C(F)(F)F)c2)N1CCCN1CCN(C2CCCCC2)CC1` (stereo not shown) [Compound 46, 5-(3-Chloro-benzylidene)-3-[3-(4-cyclohexyl-piperazin-1-yl)-propyl]-2-(3-rifluoromethyl-phenyl)-thiazolidin-4-one], for which the “% Inhib. @ 10 μM” value on CCR-5 receptor turned out to be 51.1%.

Consider `O=C1C(=Cc2cccc(Cl)c2)SC(c2cccc(F)c2)N1CCCN1CCN(c2ccccn2)CC1` (stereo not shown) [Compound 47, 5-(3-Chloro-benzylidene)-2-(3-fluoro-phenyl)-3-[3-(4-pyridin-2-yl-piperazin-1-yl)-propyl]-thiazolidin-4-ne], for which the “% Inhib. @ 10 μM” value at CCR-5 receptor was 75.6%.

`O=C1C(=Cc2cccc(Cl)c2)SC(c2cccc(F)c2)N1CCCN1CCN(c2ncccn2)CC1` (stereo not shown) [Compound 48, 5-(3-Chloro-benzylidene)-2-(3-fluoro-phenyl)-3-[3-(4-pyrimidin-2-yl-piperazin-1-yl)-propyl]-thiazolidin-4-one]: on CCR-5 receptor, the inhibition at 10 µM was 84.7%.

`O=C1C(=Cc2cccc(Cl)c2)SC(c2cccc(F)c2)N1CCCN1CCN(C2CCCCC2)CC1` (stereo not shown) [Compound 49, 5-(3-Chloro-henzylidene)-3-[3-(4-cyclohexyl-piperazin-1-yl)-propyl]-2-(3-fluoro-phenyl)-thiazolidin-4-one]: the “% Inhib. @ 10 μM” value at CCR-5 receptor was 54.0%.

As for `O=C1C(=Cc2cccc(Cl)c2)SC(c2cccc(Cl)c2)N1CCCN1CCN(c2ccccn2)CC1` (stereo not shown) [Compound 50, 5-(3-Chloro-benzylidene)-2-(3-chloro-phenyl)-3-[3-(4-pyridin-2-yl-piperazin-1-yl)-propyl]-thiazolidin-4-one], the inhibition at 10 µM on CCR-5 receptor worked out at 77.8%. Regarding `O=C1C(=Cc2cccc(Cl)c2)SC(c2cccc(Cl)c2)N1CCCN1CCN(c2ncccn2)CC1` (stereo not shown) [Compound 51, 5-(3-Chloro-benzylidene)-2-(3-chloro-phenyl)-3-[3-(4-pyrimidin-2-yl-piperazin-1-yl)-propyl]-thiazolidin-4-one], the inhibition at 10 µM on CCR-5 receptor was determined as 84%.

`O=C1C(=Cc2cccc(Cl)c2)SC(c2cccc(Cl)c2)N1CCCN1CCN(C2CCCCC2)CC1` (stereo not shown) [Compound 52, 5-(3-Chloro-benzylidene)-2-(3-chloro-phenyl)-3-[3-(4-cyclohexyl-piperazin-1-yl)-propyl]-thiazolidin-4-one]: the inhibition at 10 µM on CCR-5 receptor was 43.7%.
